Laboratory results as given in patent publication US20220184172A1, “AMPK/CASPASE-6 AXIS CONTROLS LIVER DAMAGE IN NONALCOHOLIC STEATOHEPATITIS” (The Regents of the University of California, priority 2019, published 2022).
*: point of attachment. Cbz = O=C(OCc1ccccc1)*; CH2F = FC*

What was measured:
[1] = tested on: procaspase-6 cleavage in primary hepatocytes; test: Procaspase-6 cleavage induced by TNFα and CHX in primary hepatocytes (IB); assay type: cell-based, mice; settings: 10 μM pretreatment 1 hr, then 30 μg/ml CHX and 50 ng/ml TNFα 2 hrs
Text: FIGS. 5A-5K. AMPK phosphorylates caspase-6 to inhibit its cleavage and activation. FIG. 5A. […] IB analysis of cell lysates. n=3. Mean±SD. *, P<0.05, two-way ANOVA. FIG. 5B. […] Cell lysates were subject to caspase-6 activity assay. Mean±SD. *, P<0.05. FIG. 5C. Caspase-6 Ser^257 locates within AMPK substrate motif. FIG. 5C. discloses SEQ ID NOS 57-63, respectively, in order of appearance. FIG. 5D. In vitro kinase assay using recombinant caspase-6, and recombinant AMPKα1β1γ1 or AMPKα2β1γ1 active kinase. FIG. 5E. Alignment of caspase-6 sequence. FIG. 5E. discloses SEQ ID NOS 64-67, respectively, in order of appearance. FIG. 5F. HEK293T cells overexpressing caspase-6-myc WT, S^257A, S^257D or S^257E mutant were treated with 10 μg/ml CHX and 25 ng/ml TNFα for 2 hrs. IB analysis of cell lysates. FIGS. 5G-5J. C57BL/6J mice were fed CD-HFD for 6 weeks, followed by intraperitoneally injection of 25 mg/kg A-769662 or vehicle daily for 2 weeks while continuous CD-HI-D. Mice were sacrificed 6 hrs after last injection. FIG. 5G. IB analysis of liver lysates. n=5. FIG. 5H. Liver lysates were subject to caspase-6 activity assay. n=7. FIG. 5I. Liver sections stained as indicated therein (aCasp6 and DAPI); in the merged image sections, the different stains correspond to the grayscale shades as indicated in the single stained images to the left. Scale bar=50 μm. […] Quantification of aCasp6 staining per field in FIG. 5I. n=7. […]

[2] = tested on: cleaved caspase-3 and -7 in primary hepatocytes; test: Caspase cascade after CHX plus TNFα and medium change in primary hepatocytes (IB); assay type: cell-based, mice; settings: 25 μM pretreatment 1 hr, CHX and TNFα 2 hrs, medium changed for 4 hrs
Procedure: FIGS. 16A-16D. Caspase-6 sustain activation of caspase cascade to induce apoptosis. FIG. 16A. HepG2 cells transfected with scrambled RNA or caspase-6 siRNA were treated with vehicle or 300 μg/ml CHX and 50 ng/ml TNFα for 20 hrs. Viability was measured by CCK-8 assay. Data are shown as mean±SD. *, P<0.05, two-way ANOVA. FIG. 16B. HepG2 cells transfected with scrambled RNA or Caspase-6 siRNA were treated with vehicle or 30 μg/ml CHX and 50 ng/ml TNFα for 2 hrs. Medium was changed to remove treatment. Cells were harvested at indicated time points. Cell lysates were subject to IB analysis. FIG. 16C. Isolated primary hepatocytes were pretreated with 25 μM Z-VEID-FMK (VEID) (SEQ ID NO: 71) for 1 hr and treated with 30 μg/ml CHX and 50 ng/ml TNFα for 2 hrs. Medium was changed to remove treatment for 4 hrs. Cell lysates were subject to IB analysis. FIG. 16D. Proposed model for roles of AMPK/caspase-6 axis in the regulation of NASH-associated liver damage. […]
Western blot was performed as previously described(11). […] Supernatants were collected and analyzed with BCA (Thermo Scientific) to quantify protein content. […] Individual proteins were detected with specific antibodies and visualized on film using horseradish peroxidase-conjugated secondary antibodies (Fisher Scientific) and SuperSignal West Pico PLUS Chemilunminescent Substrate (Thermo Scientific).

[3] = tested on: CD-HFD-fed Flox and LAKO mice; test: Caspase-6 inhibitor Z-VEID-FMK in CD-HFD-fed Flox and LAKO mice; assay type: in vivo
Text: FIG. 4A. […] Scale bar=50 μm. FIG. 4B. […] FIG. 4F. […] Scale bar=100 μm. FIG. 4G. […] Scale bar=50 μm.
FIG. 6A. […] FIG. 6B. […] FIG. 6C. […] FIG. 6D. […] FIG. 6E. […] FIG. 6F.
FIGS. 14A-14G. […] FIG. 14A. […] Scale bar=100 μm.

[4] = both Flox and LAKO mice, 5 mg/kg i.p. every other day for two weeks

Row | Molecule | procaspase-6 cleavage caused by TNFα and CHX [1] | cleaved caspase-3 and -7 [2] | difference in liver damage between Flox and LAKO mice ([3]; 5 mg/kg i.p. every other day for two weeks) | cytosolic cytochrome c (liver fractions, IB) ([3]; both Flox and LAKO mice, 5 mg/kg i.p. every other day for 2 weeks) | liver fibrosis (Sirius red fibrosis area, liver hydroxyproline) [3, 4] | number of apoptotic hepatocytes (TUNEL) [3, 4] | serum ALT activity [3, 4]
1 | COC[C@@H]1CCCN1S(=O)(=O)c1ccc2c(c1)C(=O)C(=O)N2 [caspase-3 and -7 inhibitor] | largely attenuated | – | – | – | – | – | –
2 | Z-VEID-FMK (Cbz-VEID-CH2F) | – | significant decrease | abrogated | decreased | reduced | significantly reduced | decreased
